Where two headings read alike, the source gives them in different places.
Legend:
SOS1 = molecular target: T1, SOS1 (Homo sapiens, UniProt Q07889); test: SOS-catalyzed nucleotide exchange assay (HTRF, SOS1-mediated GTP loading of KRAS G12D); format: biochemical
T1 construct: HIS-SOS1cat (160 nM; Cytoskeleton, US); His (N); purchased Cytoskeleton
T1 sequence (Q07889 564-1049 limits assumed): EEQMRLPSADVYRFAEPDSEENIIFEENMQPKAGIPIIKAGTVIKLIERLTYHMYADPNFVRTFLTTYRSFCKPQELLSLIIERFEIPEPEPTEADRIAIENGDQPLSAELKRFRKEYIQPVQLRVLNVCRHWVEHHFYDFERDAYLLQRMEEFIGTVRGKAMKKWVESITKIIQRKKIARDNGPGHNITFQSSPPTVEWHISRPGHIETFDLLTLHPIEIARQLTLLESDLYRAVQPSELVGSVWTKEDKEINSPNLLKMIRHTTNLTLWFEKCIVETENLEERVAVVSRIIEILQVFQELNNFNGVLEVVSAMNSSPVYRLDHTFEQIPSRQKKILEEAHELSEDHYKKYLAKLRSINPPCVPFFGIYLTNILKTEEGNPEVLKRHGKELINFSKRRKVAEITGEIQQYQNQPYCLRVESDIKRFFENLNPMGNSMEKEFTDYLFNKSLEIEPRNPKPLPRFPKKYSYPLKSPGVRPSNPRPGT
Experimental: SOS1 activity was measured by SOS1-mediated GTP loading quantification of KRAS^G12D. GTP loaded KRAS^G12D was detected by HTRF (Homogeneous Time Resolved Fluorescence) using anti-GST terbium (Cisbio, France) as a donor and a fluorescence GTP analogue (EDA-GTP-DY-647P1, [DY-647P1 labeled 2'/3'-O-(2-aminoethyl-carbamoyl)guanosine-5'-triphosphate (Jena bioscience, Germany)]) as an acceptor.
KRAS^G12D working solution was prepared by adding equal amounts of GST-KRAS^G12D (100 nM) and anti-GST-terbium (2 nM; Cisbio, France) to the assay buffer and culturing on ice for 10 minutes. […] Control solution was prepared by adding equal volumes of EDA-GTP-DY-647P1 and the assay buffer for normalization control to exclude GEF-independent GTP loading and background signals.
10 uL of the KRAS^G12D solution was added to each well and incubated for 30 minutes at room temperature while shaking. HTRF was measured using a Thermo Varioskan (excitation 334 nm, emission 665 nm). The IC50 of each inhibitor was analyzed using Graphad Prism.

KRAS G12C::SOS1 = molecular target: T2, KRAS G12C::SOS1 (Homo sapiens, UniProt Q07889); test: KRAS G12C::SOS1 protein-protein interaction (PPI) inhibition assay (HTRF); format: binding
T2 construct: purchased CISBIO 64KRASG12PEH
T2 sequence (Q07889 1-1333): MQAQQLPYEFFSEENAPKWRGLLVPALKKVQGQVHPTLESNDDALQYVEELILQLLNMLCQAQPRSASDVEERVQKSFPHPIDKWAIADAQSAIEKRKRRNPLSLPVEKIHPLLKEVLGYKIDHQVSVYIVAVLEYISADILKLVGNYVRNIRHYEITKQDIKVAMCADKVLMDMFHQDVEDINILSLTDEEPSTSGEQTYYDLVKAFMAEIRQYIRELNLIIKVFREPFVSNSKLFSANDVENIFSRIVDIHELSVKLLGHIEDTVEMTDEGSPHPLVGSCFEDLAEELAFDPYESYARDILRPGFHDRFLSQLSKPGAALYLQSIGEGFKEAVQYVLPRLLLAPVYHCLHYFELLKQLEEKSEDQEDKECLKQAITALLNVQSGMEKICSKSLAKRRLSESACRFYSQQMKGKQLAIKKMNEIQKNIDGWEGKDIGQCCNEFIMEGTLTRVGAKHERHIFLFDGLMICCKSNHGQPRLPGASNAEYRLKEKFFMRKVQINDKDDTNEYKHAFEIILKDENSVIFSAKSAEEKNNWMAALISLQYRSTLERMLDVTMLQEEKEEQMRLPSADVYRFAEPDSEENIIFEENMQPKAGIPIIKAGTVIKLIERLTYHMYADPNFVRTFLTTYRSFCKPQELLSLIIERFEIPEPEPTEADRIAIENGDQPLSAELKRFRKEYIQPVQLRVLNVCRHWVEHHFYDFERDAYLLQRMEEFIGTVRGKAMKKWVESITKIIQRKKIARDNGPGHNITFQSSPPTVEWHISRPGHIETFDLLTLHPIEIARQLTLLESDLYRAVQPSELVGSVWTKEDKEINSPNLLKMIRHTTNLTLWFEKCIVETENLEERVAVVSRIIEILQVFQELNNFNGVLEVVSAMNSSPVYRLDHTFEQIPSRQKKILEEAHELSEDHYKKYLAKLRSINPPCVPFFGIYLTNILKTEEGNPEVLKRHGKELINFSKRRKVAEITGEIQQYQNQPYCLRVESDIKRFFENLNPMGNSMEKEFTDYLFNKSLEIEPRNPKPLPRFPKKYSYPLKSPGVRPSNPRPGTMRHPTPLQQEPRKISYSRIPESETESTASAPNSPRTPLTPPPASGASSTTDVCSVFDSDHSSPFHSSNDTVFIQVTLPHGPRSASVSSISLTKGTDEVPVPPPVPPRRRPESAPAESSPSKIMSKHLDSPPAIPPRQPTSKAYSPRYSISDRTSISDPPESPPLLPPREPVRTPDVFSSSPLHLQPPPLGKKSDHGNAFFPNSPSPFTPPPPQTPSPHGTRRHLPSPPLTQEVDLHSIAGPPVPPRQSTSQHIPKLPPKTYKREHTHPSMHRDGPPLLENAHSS
Experimental: Protein-protein interaction between SOS1 and KRAS^G12c was detected using KRAS G12C/SOS1 binding kit from CISBIO (64KRASG12PEH, CISBIO, FRANCE) according to the manufacturer's assay method. Briefly, the maximum concentration of an inhibitor sample was set to be 3 µM, and the inhibitor sample was diluted 7 times by 1/3, and samples having a total of 8 concentrations were prepared. In HTRF (Homogeneous Time-Resolved Fluorescence) exclusive 96-well low-volume white plate (66PL96005, CISBIO, FRANCE), 2 µL of an inhibitor sample prepared for each concentration, 5 µL of a mixed solution of Tag1 labeled KRAS^G12c protein and GTP diluted with the dilution solution provided by the manufacturer, and 5 µL of Tag2 labeled SOS1 protein were mixed, and added with 8 µL of a diluted solution where anti-Tag1 KRAS^G12C XL665 (HTRF acceptor) labeled antibody and anti-Tag2 SOS1 Terbium cryptate (HTRF donor) labeled antibody were mixed in an equal ratio and cultured at room temperature for 2 h.

[1] = GST-KRAS G12D, HIS-SOS1cat, compound 128 pM to 10 µM, read-out: SOS-catalyzed nucleotide exchange assay
[2] = 8 concentrations from 3 µM, three replicates, read-out: KRAS G12C::SOS1 PPI

Row | SMILES | IC50 (SOS1; [1]) [nM] | IC50 (KRAS G12C::SOS1; [2]) [nM] | IC50 (SOS1) [nM] | IC50 (KRAS G12C::SOS1) [nM]
1 | C[C@@H](NC(=O)c1ccc(=O)n(-c2cncc(-c3cnnn3[C@H]3CC3(F)F)c2)n1)c1cccc(C(F)(F)CO)c1F (single isomer, unassigned) [Example 25] | – | – | < 50 | < 50
2 | C[C@@H](NC(=O)c1ccc(=O)n(-c2cncc(-c3cnnn3[C@@H]3CC3(F)F)c2)n1)c1cccc(C(F)(F)CO)c1F (single isomer, unassigned) [Example 26] | – | – | < 50 | < 50
3 | CCn1nncc1-c1cncc(-n2nc(C(=O)N[C@H](C)c3cccc(C(F)(F)CO)c3F)cc(C)c2=O)c1 [Example 1-13, N-[(1R)-1-[3-(1,1-difluoro-2-hydroxy-ethyl)-2-fluoro-phenyl]ethyl]-1-[5-(3-ethyltriazol-4-yl)-3-pyridyl]-5-methyl-6-oxo-pyridazine-3-carboxamide] | < 50 | < 50 | – | –
4 | CCn1nccc1-c1cncc(-n2nc(C(=O)N[C@H](C)c3cccc(C(F)(F)CO)c3F)ccc2=O)c1 [Example 1-14, N-[(1R)-1-[3-(1,1-difluoro-2-hydroxy-ethyl)-2-fluoro-phenyl]ethyl]-1-[5-(2-ethylpyrazol-3-yl)-3-pyridyl]-6-oxo-pyridazine-3-carboxamide] | > 150 | > 150 | – | –
5 | C[C@@H](NC(=O)c1ccc(=O)n(-c2cnnc(-c3ccnn3C)c2)n1)c1cccc(C(F)(F)F)c1F [Example 1-19, N-[(1R)-1-[2-fluoro-3-(trifluoromethyl)phenyl]ethyl]-1-[6-(2-methylpyrazol-3-yl)pyridazin-4-yl]-6-oxo-pyridazine-3-carboxamide] | > 150 | > 150 | – | –
6 | Cc1cc(C(=O)N[C@H](C)c2cccc(C(F)(F)F)c2F)cn(-c2cncc(-c3cnnn3C)c2)c1=O [Example 1-21, (R)-N-(1-(2-fluoro-3-(trifluoromethyl)phenyl)ethyl)-3-methyl-5'-(1-methyl-1H-1,2,3-triazol-5-yl)-2-oxo-2H-[1,3'-bipyridine]-5-carboxamide] | < 50 | < 50 | – | –
7 | [2H][C@](C)(NC(=O)c1ccc(=O)n(-c2cncc(-c3cnnn3C)c2)n1)c1cccc(C(F)(F)F)c1F [Example 1-34, N-[(1R)-1-deuterio-1-[2-fluoro-3-(trifluoromethyl)phenyl]ethyl]-1-[5-(3-methyltriazol-4-yl)-3-pyridyl]-6-oxo-pyridazine-3-carboxamide] | 50 to 150 | < 50 | – | –
8 | [2H]C([2H])([2H])[C@@H](NC(=O)c1ccc(=O)n(-c2cncc(-c3cnnn3C([2H])([2H])[2H])c2)n1)c1cccc(C(F)(F)F)c1F [Example 1-36, N-{(R)-1-[2-fluoro-3-(trifluoromethyl)phenyl]-ethyl-(2,2,2-trideuterio)}-1-(5-{1-[trideuteriomethyl]-1H-1,2,3-triazol-5-yl}-3-pyridyl)-6-oxo-1,6-dihydropyridazine-3-carboxamide] | < 50 | 50 to 150 | – | –

The next lines start with results.

Row | IC50 (SOS1; [1]) [nM] | IC50 (KRAS G12C::SOS1; [2]) [nM] | SMILES | IC50 (SOS1) [nM] | IC50 (KRAS G12C::SOS1) [nM]
9 | 50 to 150 | 50 to 150 | C[C@@H](NC(=O)c1ccc(=O)n(-c2cncc(-c3cnnn3C)c2)n1)c1cccc(C(F)(F)CO)c1Cl [Example 1-3, N-[(1R)-1-[2-chloro-3-(1,1-difluoro-2-hydroxy-ethyl)phenyl]ethyl]-1-[5-(3-methyltriazol-4-yl)-3-pyridyl]-6-oxo-pyridazine-3-carboxamide] | – | –
10 | < 50 | 50 to 150 | C[C@@H](NC(=O)c1ccc(=O)n(-c2cncc(-c3cnnn3C)c2)n1)c1cccc(C(F)(F)CF)c1F [Example 1-8, (R)-N-(1-(2-fluoro-3-(1,1,2-trifluoroethyl)phenyl)ethyl)-1-(5-(1-methyl-1H-1,2,3-triazol-5-yl)pyridin-3-yl)-6-oxo-1,6-dihydropyridazine-3-carboxamide] | – | –
11 | < 50 | 50 to 150 | COCC(F)(F)c1cccc([C@@H](C)NC(=O)c2ccc(=O)n(-c3cncc(-c4cnnn4C)c3)n2)c1F [Example 1-10, (R)-N-(1-(3-(1,1-difluoro-2-methoxyethyl)-2-fluorophenyl)ethyl)-1-(5-(1-methyl-1H-1,2,3-triazol-5-yl)pyridin-3-yl)-6-oxo-1,6-dihydropyridazine-3-carboxamide] | – | –
12 | < 50 | < 50 | CCn1nncc1-c1cncc(-n2nc(C(=O)N[C@H](C)c3cccc(C(F)(F)CO)c3F)ccc2=O)c1 [Example 1-18, N-[(1R)-1-[3-(1,1-difluoro-2-hydroxy-ethyl)-2-fluoro-phenyl]ethyl]-1-[5-(3-ethyltriazol-4-yl)-3-pyridyl]-6-oxo-pyridazine-3-carboxamide] | – | –
13 | 50 to 150 | 50 to 150 | CCn1nncc1-c1cc(-n2nc(C(=O)N[C@H](C)c3cccc(C(F)(F)F)c3F)ccc2=O)cnc1C [Example 1-27, 1-[5-(3-ethyltriazol-4-yl)-6-methyl-3-pyridyl]-N-[(1R)-1-[2-fluoro-3-(trifluoromethyl)phenyl]ethyl]-6-oxo-pyridazine-3-carboxamide] | – | –
14 | > 150 | > 150 | C[C@@H](NC(=O)c1cc(F)c(=O)n(-c2cncc(-c3cnnn3C)c2)c1)c1cccc(C(F)(F)F)c1F [Example 1-30, (R)-3-fluoro-N-(1-(2-fluoro-3-(trifluoromethyl)phenyl)ethyl)-5'-(1-methyl-1H-1,2,3-triazol-5-yl)-2-oxo-2H-[1,3'-bipyridine]-5-carboxamide] | – | –
15 | 50 to 150 | 50 to 150 | [2H]C([2H])([2H])[C@@H](NC(=O)c1ccc(=O)n(-c2cncc(-c3cnnn3C)c2)n1)c1cccc(C(F)(F)F)c1F [Example 1-35, N-{(R)-1-[2-fluoro-3-(trifluoromethyl)phenyl]-ethyl-(2,2,2-trideuterio)}-1-[5-(1-methyl-1H-1,2,3-triazol-5-yl)-3-pyridyl]-6-oxo-pyridazine-3-carboxamide] | – | –
